{
  "source": "patent US5948780A",
  "about": "“Method for treating and preventing heart failure and ventricular dilatation” (priority 1997, dated 1999)",
  "key": {"gelatinases": {"tested_on": "gelatinases", "test": "plasma MMP inhibitory activity (thiopeptolide hydrolysis), gelatinases", "type": "biochemical", "conditions": "plasma after 10 mg/kg oral administration", "experimental": "(§1) The MMP inhibitor chosen for these studies was Compound A as above. A single oral dose of 10 mg/kg of Compound A was administered in one pig, and a second pig was simultaneously administered a single 10 mg/kg dose of the MMP inhibitor intravenously. Plasma samples were serially collected from the chronically placed arterial access ports. Plasma levels of the MMP inhibitor were determined by the degree of hydrolysis of the MMP substrate thiopeptolide Ac-Pro-Leu-Gly-thioester-Leu-Leu-Gly=OEt. […] A pharmacokinetic profile was constructed using these initial data, and it was predicted that an oral delivery of 20 mg/kg/day of Compound A would provide significant MMP plasma inhibitory activity at trough levels. Accordingly, the 3 pigs underwent 20 mg/kg QD-AM of treatment with Compound A for 5 days. In order to confirm adequate MMP inhibitory activity, plasma was collected prior to the AM dose with each day of treatment. […] Thus, a practical dosing regiment of Compound A was established which provided stable plasma MMP inhibitory activity in the animal model to be used in the present study."}, "[1]": {"tested_on": "catalytic domain of stromelysin", "test": "plasma MMP inhibitory activity (thiopeptolide hydrolysis), stromelysin", "type": "biochemical", "conditions": "plasma after 10 mg/kg oral administration", "experimental": "as §1"}, "isolated LV myocytes": {"tested_on": "isolated LV myocytes", "test": "isolated myocyte contractile function with pacing induced congestive heart failure (Table IV)", "conditions": "Rapid Pacing + MMPi, 20 mg/kg QD", "protocol": "Following completion of the 21-day protocol, a final set of LV function measurements were performed and plasma collected. Following steady-state LV function measurements, 35 cc of blood was drawn from the arterial access port into chilled tubes containing EDTA (1.5 mg/mL). The blood samples were immediately centrifuged (2000 g, 10 min, 4° C.), the plasma decanted into separate tubes, frozen in a dry ice/methanol bath, and stored at -80° C. until the time of assay. The animals were then anesthetized as described in the preceding section, a sternotomy performed, and the heart quickly extirpated and placed in a phosphate buffered ice slush. The great vessels, atria, and right ventricle were carefully trimmed away, and the LV weighed. The region of the LV free wall incorporating the circumflex artery (5×5 cm) was excised and prepared for myocyte isolation. The region of the left ventricular free wall comprising the left anterior descending artery (3×5 cm) was cannulated and prepared for perfusion fixation.\nMyocytes were isolated from the LV free wall as follows. The left circumflex coronary artery was perfused with a collagenase solution (0.5 mg/mL, Worthington, type II; 146 U/mg) for 35 minutes. The tissue was then minced into 2 mm sections and gently agitated. After 15 minutes, the supernatant was removed, filtered, and the cells allowed to settle. The myocyte pellet (5×10^4 cells/mL) was then resuspended in standard cell culture media (M199, Gibco Laboratories, Grand Island, N.Y.). […] Viable myocytes were defined as those cells which retained a rod shape, were calcium tolerant, responded to electrical stimulation, and excluded trypan blue. Isolated myocyte function was examined using a thermostatically controlled chamber (37° C.) containing a volume of 2.5 mL and two stimulating platinum electrodes to image the isolated myocytes on an inverted microscope (Axiovert IM35, Zeiss Inc., Germany). A 20× long working distance Hoffmann Modulation Contrast objective (Modulation Optics Inc., Greenvale, N.Y.) was used to image the myocytes. Myocyte contractions were elicited by field stimulating the tissue chamber at 1 Hz (S11, Grass Instruments, Quincy, Mass.) using current pulses of 5 msec duration and voltages 10% above contraction threshold. Myocyte motion signals were captured and input through an edge detector system (Crescent Electronics, Sandy, Utah). The distance between the left and right myocyte edges was converted into a voltage signal, digitized, and input to a computer (80386; ZBV2526, Zenith Data Systems, St. Joseph, Mich.) for analysis. Parameters computed from the digitized contraction profiles include percent shortening, velocity of shortening, velocity of relengthening, time to peak contraction, and duration of contraction.\nIndices of LV and myocyte function were compared between the three treatment groups using multi-way analysis of variance (ANOVA). For comparisons of LV function with each week of pacing, an ANOVA for repeated measures was used. […] For comparisons of neurohormonal profiles, the Student-Neuman-Kuells test was employed. The categorical scores obtained from the histomorphometric studies were compared between groups using the Chi-Square analysis. All statistical procedures were performed using the BMDP statistical software package (BMDP Statistical Software Inc., Los Angeles, Calif.). […] Values of p<0.05 were considered to be statistically significant."}, "[2]": {"test": "plasma levels of Compound A in MI-rat", "type": "in vivo", "conditions": "po, read-out: Plasma Level", "protocol": "Drugs were administered in chow such that the investigators were blinded to group assignment. A biweekly record of health status, body weight, and food consumption was maintained.\nDosing began at 2 weeks post-MI and continued for 6 weeks.\nThe isoflurane level was then increased to 2%; the Millar was removed from the carotid and replaced with a PE-50 cannula. A 5 mL blood sample was taken using the PE-50 cannula and an ice-cold syringe. Blood was then put into an ice-cold EDTA tube, and centrifuged at 5000 RPM for 10 minutes at 4° C. Plasma was aliquoted, then stored at -80° C. until assays were performed to assess plasma drug levels and other factors."}, "[3]": {"tested_on": "pacing-induced heart failure model", "test": "pacing-induced heart failure in pigs, first study (echocardiography)", "type": "in vivo, pig", "experimental": "A study was performed in four pigs in which atrial pacemakers were implanted. Heart failure was induced by chronic rapid pacing (i.e., increasing heart rate to 240 beats per minute). Echocardiographic assessment of cardiac function, chamber dimensions, and structure was performed prior to the initiation of pacing, and following 1 and 3 weeks of rapid pacing. Previous studies have shown that 1 week of rapid atrial pacing represents an early timepoint in the development of heart failure in which cardiac dilation is evident, but there is no significant effect on left ventricular (LV) systolic function. Two pigs were dosed with the MMP-inhibitor 2-(4'-bromobiphenyl-4-sulfonylamino)-3-methylbutyric acid (Compound A) (20 mg/kg/day) which was given once a day orally. This dosage was selected based upon pharmacokinetic data in which this dosage regimen would provide minimal steady state plasma levels of 10 μM Compound A. One pig dosed with Compound A was sacrificed at the end of 1 week of pacing, and the second pig was paced for a full 3 weeks. At the end of 3 weeks, pigs were euthanized and the heart removed. Cardiac myocytes were isolated from a portion of the left ventricle to measure changes in cell length.\n(§2) MMP-Inhibitor efficacy in treating heart failure was defined as stopping cardiac dilation, preserving cardiac function, and reducing cardiac myocyte lengthening. Cardiac dilation was assessed by measuring changes in the end-diastolic dimension between the left ventricular free wall and left ventricular septum. Cardiac function was also measured using m-mode echocardiography by calculating the percent fraction shortening, or in other words, how well the left ventricle of the heart pumped blood into the circulation. Cellular remodelling was measured by isolating cardiac myocytes using a standard collagenase digestion procedure and measuring cell length using digital photomicroscopy. To confirm plasma drug levels of the MMP-inhibitor, plasma was collected prior to dosing on each day of the pacing protocol."}, "cardiac myocytes": {"tested_on": "cardiac myocytes", "test": "cardiac myocyte length after pacing, first study", "type": "in vivo, pig", "experimental": "A study was performed in four pigs in which atrial pacemakers were implanted. Heart failure was induced by chronic rapid pacing (i.e., increasing heart rate to 240 beats per minute). Echocardiographic assessment of cardiac function, chamber dimensions, and structure was performed prior to the initiation of pacing, and following 1 and 3 weeks of rapid pacing. Previous studies have shown that 1 week of rapid atrial pacing represents an early timepoint in the development of heart failure in which cardiac dilation is evident, but there is no significant effect on left ventricular (LV) systolic function. […]\nas §2, with “To confirm plasma drug levels of the MMP-inhibitor, plasma was collected prior to dosing on each day of the pacing protocol.” left out"}, "[4]": {"conditions": "20 mg/kg/day oral, paced 7 days"}, "[5]": {"conditions": "20 mg/kg/day oral, paced 21 days"}, "[6]": {"conditions": "Paced + Compound A group, baseline"}},
  "note": "Read-outs that look alike come from different tables or passages of the source.",
  "data": [
    {"smiles": "CC(C)C(NS(=O)(=O)c1ccc(-c2ccc(Br)cc2)cc1)C(=O)O", "note": "(centres unmarked) [Compound A, 2-(4'-bromobiphenyl-4-sulfonylamino)-3-methylbutyric acid]", "values": [
      {"measurement": "reduction in activity against the gelatinases", "setting": "gelatinases", "value": "~50", "unit": "%"},
      {"measurement": "reduction in activity against the catalytic domain of stromelysin", "setting": "[1]", "value": "~50", "unit": "%"},
      {"measurement": "Percent Shortening", "setting": "isolated LV myocytes; 7 mM calcium", "value": "5.6 ± 0.5", "unit": "%"},
      {"measurement": "Relengthening Velocity", "setting": "isolated LV myocytes; 7 mM calcium", "value": "78 ± 5", "unit": "μm/s"},
      {"measurement": "Resting Length", "setting": "isolated LV myocytes; 7 mM calcium", "value": "156 ± 5", "unit": "μm"},
      {"measurement": "Shortening Velocity", "setting": "isolated LV myocytes; 7 mM calcium", "value": "84 ± 7", "unit": "μm/s"},
      {"measurement": "Time to 50% Relaxation", "setting": "isolated LV myocytes; 7 mM calcium", "value": "102 ± 5", "unit": "ms"},
      {"measurement": "Time to Peak Contraction", "setting": "isolated LV myocytes; 7 mM calcium", "value": "240 ± 3", "unit": "ms"},
      {"measurement": "Total Duration", "setting": "isolated LV myocytes; 7 mM calcium", "value": "476 ± 10", "unit": "ms"},
      {"measurement": "Percent Shortening", "setting": "isolated LV myocytes; […] nM isoproterenol", "value": "5.1 ± 0.5", "unit": "%"},
      {"measurement": "Relengthening Velocity", "setting": "isolated LV myocytes; […] nM isoproterenol", "value": "80 ± 11", "unit": "μm/s"},
      {"measurement": "Resting Length", "setting": "isolated LV myocytes; […] nM isoproterenol", "value": "161 ± 3", "unit": "μm"},
      {"measurement": "Shortening Velocity", "setting": "isolated LV myocytes; […] nM isoproterenol", "value": "108 ± 11", "unit": "μm/s"},
      {"measurement": "Time to 50% Relaxation", "setting": "isolated LV myocytes; […] nM isoproterenol", "value": "104 ± 6", "unit": "ms"},
      {"measurement": "Time to Peak Contraction", "setting": "isolated LV myocytes; […] nM isoproterenol", "value": "175 ± 2", "unit": "ms"},
      {"measurement": "Total Duration", "setting": "isolated LV myocytes; […] nM isoproterenol", "value": "433 ± 12", "unit": "ms"},
      {"measurement": "Percent Shortening", "setting": "isolated LV myocytes; baseline", "value": "2.2 ± 0.1", "unit": "%"},
      {"measurement": "Relengthening Velocity", "setting": "isolated LV myocytes; baseline", "value": "26 ± 2", "unit": "μm/s"},
      {"measurement": "Resting Length", "setting": "isolated LV myocytes; baseline", "value": "169 ± 4", "unit": "μm"},
      {"measurement": "Shortening Velocity", "setting": "isolated LV myocytes; baseline", "value": "31 ± 2", "unit": "μm/s"},
      {"measurement": "Time to 50% Relaxation", "setting": "isolated LV myocytes; baseline", "value": "131 ± 5", "unit": "ms"},
      {"measurement": "Time to Peak Contraction", "setting": "isolated LV myocytes; baseline", "value": "244 ± 7", "unit": "ms"},
      {"measurement": "Total Duration", "setting": "isolated LV myocytes; baseline", "value": "498 ± 9", "unit": "ms"},
      {"measurement": "concentration at 1008 h", "setting": "[2]; 0.005 mg/kg/day in chow", "value": "2 ± 1", "unit": "µM"},
      {"measurement": "concentration at 1008 h", "setting": "[2]; 0.05 mg/kg/day in chow", "value": "16 ± 4", "unit": "µM"},
      {"measurement": "concentration at 1008 h", "setting": "[2]; 0.5 mg/kg/day in chow", "value": "55 ± 3", "unit": "µM"},
      {"measurement": "concentration at 1008 h", "setting": "[2]; 5 mg/kg/day in chow", "value": "201 ± 7", "unit": "µM"},
      {"measurement": "End-Diastolic Dimension", "setting": "[3]; [4]", "value": "3.6 ± 0.2", "unit": "cm"},
      {"measurement": "Fractional Shortening", "setting": "[3]; [4]", "value": "33 ± 3", "unit": "%"},
      {"measurement": "Heart Rate", "setting": "[3]; [4]", "value": "120 ± 3", "unit": "BPM"},
      {"measurement": "LV Stress", "setting": "[3]; [4]", "value": "50 ± 4", "unit": "g/cm2"},
      {"measurement": "End-Diastolic Dimension", "setting": "[3]; [5]", "value": 4.3, "unit": "cm"},
      {"measurement": "Fractional Shortening", "setting": "[3]; [5]", "value": 22, "unit": "%"},
      {"measurement": "decrease in cardiac function (fractional shortening)", "setting": "[3]; 3 weeks of pacing", "value": 39, "unit": "%"},
      {"measurement": "increase in cardiac dilation (left ventricular end-diastolic dimension)", "setting": "[3]; 3 weeks of pacing", "value": 26, "unit": "%"},
      {"measurement": "End-Diastolic Dimension", "setting": "[3]; [6]", "value": "3.4 ± 0.2", "unit": "cm"},
      {"measurement": "Fractional Shortening", "setting": "[3]; [6]", "value": "36 ± 3", "unit": "%"},
      {"measurement": "Heart Rate", "setting": "[3]; [6]", "value": "105 ± 4", "unit": "BPM"},
      {"measurement": "LV Stress", "setting": "[3]; [6]", "value": "46 ± 3", "unit": "g/cm2"},
      {"measurement": "left ventricular end-diastolic volume versus control values", "setting": "[3]; first week of pacing", "value": "remained unchanged from control values"},
      {"measurement": "left ventricular wall stress versus control values", "setting": "[3]; first week of pacing", "value": "remained unchanged from control values"},
      {"measurement": "fractional shortening, change", "setting": "[3]; following 1 week of pacing", "value": "unchanged"},
      {"measurement": "Cardiac Myocyte Length", "setting": "cardiac myocytes; [5]", "value": 170, "unit": "μms"},
      {"measurement": "increase in cardiac myocyte cell length", "setting": "cardiac myocytes; 3 weeks of pacing", "value": 19, "unit": "%"}
    ]}
  ]
}
